Data published in ChEMBL document CHEMBL1158775, “Quinones from Chirita eburnea” (J Nat Prod, 2005).

Test system: Radical scavenging activity
Assay: Antioxidant activity assessed as DPPH radical scavenging activity
Format: functional

Row | IC50 | SMILES
1 | 45.7 µM | COc1c(O)cc2c(c1O)C(=O)C1=C(C2=O)C(C)(C)[C@H](C)O1
2 | 125 µM | C[C@@H]1OC2=C(C(=O)c3ccc(O)c(O)c3C2=O)C1(C)C
3 | 86.9 µM | O=C1O[C@H]([C@@H](O)CO)C(O)=C1O [ASCORBIC ACID]
